This note sets out measurements from patent US9920010B2, “CXCR7 receptor modulators” (IDORSIA PHARMACEUTICALS LTD, priority 2013, dated 2018).

This assay deals with T1, CXCR7 (Homo sapiens, UniProt P25106).
T1 construct: host or cells: CHO-K1 (PathHunter CHO-K1 CXCR7 b-arrestin cell line, stably transfected)
Description: PathHunter CHO-K1 CXCR7 b-arrestin recruitment assay (CXCR7 agonistic activity). To be noted: PathHunter CHO-K1 CXCR7 b-arrestin cell line. In kind it is cell-based. In outline:
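Stable CHO-K1 line with C-terminally ProLink-tagged CXCR7 and β-arrestin 2–EA fusion; β-arrestin recruitment restores β-gal activity, read by chemiluminescence after 1 h RT detection. Cells seeded 24 h, starved in OPTIMEM 3–4 h, exposed to compounds 90 min at 37 °C in HBSS/HEPES/BSA. Geometric-mean EC50 from repeated measurements.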

pEC50: −log10 of the molar value.

T1 sequence (P25106 whole entry): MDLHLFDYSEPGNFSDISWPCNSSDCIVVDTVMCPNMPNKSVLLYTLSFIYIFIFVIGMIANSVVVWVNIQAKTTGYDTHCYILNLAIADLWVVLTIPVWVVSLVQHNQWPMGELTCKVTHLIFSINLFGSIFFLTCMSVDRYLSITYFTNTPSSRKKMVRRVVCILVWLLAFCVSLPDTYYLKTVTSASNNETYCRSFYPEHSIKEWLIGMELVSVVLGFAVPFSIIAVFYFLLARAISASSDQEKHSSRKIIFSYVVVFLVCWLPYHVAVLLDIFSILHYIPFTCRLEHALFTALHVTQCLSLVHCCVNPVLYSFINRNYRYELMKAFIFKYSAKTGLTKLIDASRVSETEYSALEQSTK
T1 sequence (P32121 whole entry partner): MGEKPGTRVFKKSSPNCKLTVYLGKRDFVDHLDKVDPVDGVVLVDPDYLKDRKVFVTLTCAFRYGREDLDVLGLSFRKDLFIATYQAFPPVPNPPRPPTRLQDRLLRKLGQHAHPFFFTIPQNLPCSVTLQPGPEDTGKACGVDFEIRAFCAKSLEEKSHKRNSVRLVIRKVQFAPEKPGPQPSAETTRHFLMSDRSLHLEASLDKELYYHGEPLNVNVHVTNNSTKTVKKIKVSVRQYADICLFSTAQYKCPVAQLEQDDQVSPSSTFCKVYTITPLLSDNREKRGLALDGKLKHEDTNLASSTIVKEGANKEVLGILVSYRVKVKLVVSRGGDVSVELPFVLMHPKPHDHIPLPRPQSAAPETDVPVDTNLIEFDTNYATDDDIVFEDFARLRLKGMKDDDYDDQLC

A word on the pEC50: it is −log10 of the EC50, conventionally taken in molar units. For the molecule `CCN1CCc2c(CCC(=O)N(CCN(C)C)Cc3ccccc3C(F)(F)F)cccc2C1` [compound 157, N-(2-Dimethylamino-ethyl)-3-(2-ethyl-1,2,3,4-tetrahydro-isoquinolin-5-yl)-N-(2-trifluoromethyl-benzyl)-propionamide], the pEC50 is 8.05.

Turning to `CCN1CCc2cccc(NCC(=O)N(CCN(C)C)Cc3ccc(OC)cc3)c2C1` [compound 499], the pEC50 is 6.61.

The molecule `CN(C)CCN(Cc1ccccc1C(F)(F)F)C(=O)CNc1cccc2c1CN(CC(F)(F)F)CC2` [Example 558, N-(2-Dimethylamino-ethyl)-2-[2-(2,2,2-trifluoro-ethyl)-1,2,3,4-tetrahydro-isoquinolin-8-ylamino]-N-(2-trifluoromethyl-benzyl)-acetamide] had a pEC50 of 7.23.

Take `CCC(=O)N1CCc2c(cccc2NCC(=O)N(CCN(CC)CC)Cc2ccccc2)C1` [Example 27, N-Benzyl-N-(2-diethylamino-ethyl)-2-(2-propionyl-1,2,3,4-tetrahydro-isoquinolin-5-ylamino)-acetamide]: the negative logarithm of the EC50 (pEC50) is 7.72.

With `CN(CCN(Cc1ccccc1C(F)(F)F)C(=O)CNc1cccc2c1CCN(CC1CC1)C2)C1CCC1` [Example 447, N-[2-(Cyclobutyl-methyl-amino)-ethyl]-2-(2-cyclopropylmethyl-1,2,3,4-tetrahydro-isoquinolin-5-ylamino)-N-(2-trifluoromethyl-benzyl)-acetamide], the negative logarithm of the EC50 (pEC50) was 9.00.

Turning to `CN(CCN(Cc1ccccc1Br)C(=O)CNc1cccc2c1CCN(CC1CC1)C2)C(=O)OC(C)(C)C` [Example 235, (2-{(2-Bromo-benzyl)-[2-(2-cyclopropylmethyl-1,2,3,4-tetrahydro-isoquinolin-5-ylamino)-acetyl]-amino}-ethyl)-methyl-carbamic acid tert-butyl ester], the negative logarithm of the EC50 (pEC50) is 6.97.

`COCCN1CCc2c(/C=C/C(=O)N(Cc3ccccc3C(F)(F)F)CC(C)(C)O)cccc2C1` [Example 323, (E)-N-(2-Hydroxy-2-methyl-propyl)-3-[2-(2-methoxy-ethyl)-1,2,3,4-tetrahydro-isoquinolin-5-yl]-N-(2-trifluoromethyl-benzyl)-acrylamide]: the negative-log EC50 (pEC50) is 6.74.

Turning to `COCCN1CCc2c(CCC(=O)N(CCN3CCC(F)(F)CC3)Cc3ncccc3Cl)cccc2C1` [Example 345, N-(3-Chloro-pyridin-2-ylmethyl)-N-[2-(4,4-difluoro-piperidin-1-yl)-ethyl]-3-[2-(2-methoxy-ethyl)-1,2,3,4-tetrahydro-isoquinolin-5-yl]-propionamide], the pEC50 was 6.40.

`CN(C)CCN(Cc1ccccc1C(F)(F)F)C(=O)C1(Nc2cccc3c2CCN(CC2CC2)C3)CC1` [Example 292, 1-(2-Cyclopropylmethyl-1,2,3,4-tetrahydro-isoquinolin-5-ylamino)-cyclopropanecarboxylic acid (2-dimethylamino-ethyl)-(2-trifluoromethyl-benzyl)-amide] gave a pEC50 of 6.99.

As for `CN(C)CCN(Cc1ccncc1)C(=O)CNc1cccc2c1CCN(CC1CC1)C2` [Example 268, 2-(2-Cyclopropylmethyl-1,2,3,4-tetrahydro-isoquinolin-5-ylamino)-N-(2-dimethylamino-ethyl)-N-pyridin-4-ylmethyl-acetamide], the negative logarithm of the EC50 (pEC50) is 6.46.

Molecule `COc1ccc2c(c1NCC(=O)N(CCN(C)C)Cc1ccccc1C(F)(F)F)CCN(CC1CC1)C2` [Example 89, 2-(2-Cyclopropylmethyl-6-methoxy-1,2,3,4-tetrahydro-isoquinolin-5-ylamino)-N-(2-dimethylamino-ethyl)-N-(2-trifluoromethyl-benzyl)-acetamide] showed a pEC50 of 8.10.

As to `CN1CCCC1CCN(C/C=C/c1ccccc1)C(=O)CNc1cccc2c1CCN(CC1CC1)C2` (racemic) [Example 53, rac-2-(2-Cyclopropylmethyl-1,2,3,4-tetrahydro-isoquinolin-5-ylamino)-N-[2-(1-methyl-pyrrolidin-2-yl)-ethyl]-N-((E)-3-phenyl-allyl)-acetamide], the pEC50 was 7.64.

`CN(C)CCN(Cc1ccccc1C(F)(F)F)C(=O)CNc1cccc2c1C(C)(C)CN(CC1CC1)C2` [Example 91, 2-(2-Cyclopropylmethyl-4,4-dimethyl-1,2,3,4-tetrahydro-isoquinolin-5-ylamino)-N-(2-dimethylamino-ethyl)-N-(2-trifluoromethyl-benzyl)-acetamide] had a negative-log EC50 (pEC50) of 9.00.

With `CN(C)CCN(Cc1c(F)cccc1F)C(=O)CNc1cccc2c1CCN(CC1CC1)C2` [Example 270, 2-(2-Cyclopropylmethyl-1,2,3,4-tetrahydro-isoquinolin-5-ylamino)-N-(2,6-difluoro-benzyl)-N-(2-dimethylamino-ethyl)-acetamide], the pEC50 was 8.15.

In turn, `CCC(=O)N1CCc2c(cccc2NCC(=O)N(CCN(C)C)Cc2ccccc2Cl)C1` [Example 20, N-(2-Chloro-benzyl)-N-(2-dimethylamino-ethyl)-2-(2-propionyl-1,2,3,4-tetrahydro-isoquinolin-5-ylamino)-acetamide] gave a pEC50 of 7.96.

The molecule `CCN1CCc2c(CCC(=O)N(Cc3ccccc3C(F)(F)F)C3CCN(C)CC3)cccc2C1` [compound 159] showed a pEC50 of 7.14.

In turn, `CN(C)CCN(Cc1cccc(OC(F)(F)F)c1)C(=O)CNc1cccc2c1CN(CC1CC1)CC2` [compound 471, 2-(2-Cyclopropylmethyl-1,2,3,4-tetrahydro-isoquinolin-8-ylamino)-N-(2-dimethylamino-ethyl)-N-(3-trifluoromethoxy-benzyl)-acetamide] showed a negative-log EC50 (pEC50) of 7.68.

Regarding `CCN1CCc2cccc(NCC(=O)N(CCN(C)C)Cc3ccc(F)cn3)c2C1` [compound 529], the pEC50 is 6.76.

`CN(C)CCN(Cc1ccc(Br)cc1)C(=O)CNc1cccc2c1CCN(CC1CC1)C2` [Example 238, N-(4-Bromo-benzyl)-2-(2-cyclopropylmethyl-1,2,3,4-tetrahydro-isoquinolin-5-ylamino)-N-(2-dimethylamino-ethyl)-acetamide] gave a negative-log EC50 (pEC50) of 7.37.

Turning to `CN1CCC(N(Cc2ccccc2C(F)(F)F)C(=O)CNc2cccc3c2CCN(CC2CC2)C3)CC1` [Example 105, 2-(2-Cyclopropylmethyl-1,2,3,4-tetrahydro-isoquinolin-5-ylamino)-N-(1-methyl-piperidin-4-yl)-N-(2-trifluoromethyl-benzyl)-acetamide], the pEC50 was 8.05.

Turning to `CN(CCN(Cc1ncccc1C(F)(F)F)C(=O)CNc1cccc2c1CCN(CC1CC1)C2)CC(F)(F)F` [Example 280, 2-(2-Cyclopropylmethyl-1,2,3,4-tetrahydro-isoquinolin-5-ylamino)-N-{2-[methyl-(2,2,2-trifluoro-ethyl)-amino]-ethyl}-N-(3-trifluoromethyl-pyridin-2-ylmethyl)-acetamide], the pEC50 was 7.55.

With `CC(C)CN1Cc2cccc(NCC(=O)N(CCN(C)C)Cc3ncccc3C(F)(F)F)c2CC1=O` [Example 313, N-(2-Dimethylamino-ethyl)-2-(2-isobutyl-3-oxo-1,2,3,4-tetrahydro-isoquinolin-5-ylamino)-N-(3-trifluoromethyl-pyridin-2-ylmethyl)-acetamide], the negative-log EC50 (pEC50) is 7.51.

As for `COC(=O)CN1CCc2c(cccc2NCC(=O)N(CCN(C)C)Cc2ccccc2C(F)(F)F)C1` [Example 360, [5-({[(2-Dimethylamino-ethyl)-(2-trifluoromethyl-benzyl)-carbamoyl]-methyl}-amino)-3,4-dihydro-1H-isoquinolin-2-yl]-acetic acid methyl ester], the negative logarithm of the EC50 (pEC50) is 7.52.

Molecule `CC(C)CCN(Cc1ccccc1)C(=O)CNc1cccc2c1CN(C)CC2` [compound 183] gave a pEC50 of 6.85.

For the molecule `CN1CCN(C(=O)CNc2cccc3c2CCN(CC2CC2)C3)C(c2ccccc2)C1` (racemic) [Reference Example 104, rac-2-(2-Cyclopropylmethyl-1,2,3,4-tetrahydro-isoquinolin-5-ylamino)-1-(4-methyl-2-phenyl-piperazin-1-yl)-ethanone], the negative logarithm of the EC50 (pEC50) is 6.63.

`CCC(=O)N1CCc2c(cccc2NCC(=O)N(CCN(C)C)Cc2ccc(OC)cc2)C1` [Example 30, N-(2-Dimethylamino-ethyl)-N-(4-methoxy-benzyl)-2-(2-propionyl-1,2,3,4-tetrahydro-isoquinolin-5-ylamino)-acetamide]: the negative-log EC50 (pEC50) is 6.55.

For `CCN1CCc2cccc(NCC(=O)N(CCN(C)C)Cc3ccccc3C)c2C1` [compound 494, N-(2-Dimethylamino-ethyl)-2-(2-ethyl-1,2,3,4-tetrahydro-isoquinolin-8-ylamino)-N-(2-methyl-benzyl)-acetamide], the negative-log EC50 (pEC50) is 7.55.

For `NS(=O)(=O)CCN(Cc1ccccc1C(F)(F)F)C(=O)CNc1cccc2c1CCN(CC1CC1)C2` [Example 233, 2-(2-Cyclopropylmethyl-1,2,3,4-tetrahydro-isoquinolin-5-ylamino)-N-(2-sulfamoyl-ethyl)-N-(2-trifluoromethyl-benzyl)-acetamide], the pEC50 is 7.14.

`CCN1CCc2cccc(NCC(=O)N(CCN(C)C)Cc3ccccc3OC)c2C1` [compound 497]: the pEC50 was 7.11.

`CC(C)CCN(Cc1ccccc1)C(=O)COc1cccc2c1CCN(CC1CC1)C2` [compound 163, N-Benzyl-2-(2-cyclopropylmethyl-1,2,3,4-tetrahydro-isoquinolin-5-yloxy)-N-(3-methyl-butyl)-acetamide] gave a pEC50 of 7.77.

The molecule `CN(CCF)CCN(Cc1ccccc1C(F)(F)F)C(=O)CNc1cccc2c1CCN(CC1CC1)C2` [Example 244, 2-(2-Cyclopropylmethyl-1,2,3,4-tetrahydro-isoquinolin-5-ylamino)-N-{2-[(2-fluoro-ethyl)-methyl-amino]-ethyl}-N-(2-trifluoromethyl-benzyl)-acetamide] showed a negative logarithm of the EC50 (pEC50) of 8.52.

For `CN(C)CCN(Cc1ccccc1Cl)C(=O)CCc1cccc2c1CCN(CC1CC1)C2` [compound 156, N-(2-Chloro-benzyl)-3-(2-cyclopropylmethyl-1,2,3,4-tetrahydro-isoquinolin-5-yl)-N-(2-dimethylamino-ethyl)-propionamide], the pEC50 is 9.00.
